“Also recorded” adds a separate entry of the source.
Assays:
Type in all cases: physicochemical
[1] = Lactone/carboxylate form of irinotecan in solution (FTIR, HPLC)
From the text: FTIR measurements were made at room temperature in transmission mode using a Nicolet Nexus 870 spectrometer (Nicolet Instrument, Madison, Wis., USA) equipped with a liquid nitrogen-cooled mercury cadmium telluride detector. […] Inc. Buena, N.J.). The sample was dried with a stream of nitrogen and left overnight in a desiccator before recording the spectra. For each spectrum, 250 scans were co-added at a 4 cm^−1 resolution, using a Happ-Genzel apodization. Data analysis was done using the Grams AI software (Galactic Industries, Salem, N.H., USA). The second derivative of the spectra was performed to determine the frequency of the components of unresolved bands. Vibrational spectroscopy was used to further investigate the potential interaction between irinotecan and copper in free solution. […] Since irinotecan has several possible binding sites, tentative assignment of the bands of the spectra to its functional groups was performed in order to identify which group is involved in an interaction with copper gluconate/TEA. The C═O stretching absorption bands appear in the region of 1870-1540 cm^−1. The position of the carbonyl bands is affected by several factors including intermolecular and intramolecular hydrogen bonding. […] This conversion to the carboxylate form was confirmed by HPLC analysis. […]

[2] = Irinotecan loading into diethanolamine buffered liposomes at 50° C.; settings: 100 mM copper gluconate/140 mM diethanolamine pH 7.0 inside, sucrose/phosphate/EDTA buffer outside, target drug to lipid ratio 0.1 (FIG. 13)
Description: DSPC, cholesterol and DSPG were weighed out into capped scintillation vials. DSPC was dissolved in chloroform at 60 mg/ml, cholesterol was dissolved in chloroform at 25 mg/ml, and DSPG was dissolved in chloroform:methanol:water (50/10/1) at 30 mg/ml. The lipids were then combined in the appropriate proportions. […] A stream of N2 gas, while heating the mixture, was used to remove solvent. The resulting lipid films were left under vacuum for a few minutes, then redissolved in chloroform. The drying process was then repeated, and the lipid films were allowed to dry on a vacuum pump for 4+hours. […] MLVs were extruded at 70° C. through two 100 nm filters for a total of eight passes without difficulty. The liposomes were then allowed to cool down to room temperature. Samples were buffer exchanged into 300 mM sucrose/20 mM phosphate/10 mM EDTA, pH 7.0 by tangential flow. […] Clinical material of Irinotecan was used for a Irinotecan stock. Drug and liposome samples were pre-heated separately at 50° C. for 5 minutes, then combined at t=0. […] Samples of the spun column eluant and the pre-column solution were counted by liquid scintillation counting to determine the lipid concentration at each time point. Irinotecan concentrations were determined using a UV assay. […] Irinotecan is quantitated by absorbance at 370 nm against a standard curve.

[3] = Liposomal drug loading (encapsulation) at 50° C., Sephadex G-50 spin column, UV assay; settings: for increase of irinotecan/lipid molar ratio: TEA containing liposomes (FIG. 10); for irinotecan encapsulation efficiency: 50° C.; for liposomal encapsulation (result in words): 50° C. (FIG. 2)
Description: The lipids were labeled with trace amounts of ^3H-cholesteryl hexadecyl ether, a non-exchangeable, non-metabolizeable lipid marker to allow liposome quantitation by scintillation counting. The solvent was evaporated under a stream of nitrogen and dried under vacuum for at least 4 hours. […] The mean size distribution of the resulting large unilamellar vesicles (80-120 nm) was determined using a Nicomp submicron particle sizer model 370 (Nicomp, Santa Barbara, Calif.). For irinotecan loading, the solutions of irinotecan were made by dissolving the drug either in water at 50° C. or in sucrose phosphate buffer (300 mM sucrose, 40 mM phosphate) at room temperature. When necessary, the pH of the solution was adjusted to the desired value using NaOH. The final concentration of irinotecan was 15 mM. […] The precipitate was isolated by centrifugation (12000 rpm, 15 min) and was solubilized with 2 mM EDTA in water. Similar preparations were employed for daunorubicin. For liposomal loading, the drug solution and the liposomes were incubated separately at 50° C. for approximately five minutes to equilibrate the temperature. […] Aliquots of 75 μl were applied to a Sephadex G-50 spin column. The columns were prepared by adding glass wool to a 1 ml syringe and Sephadex G-50 beads hydrated in sucrose phosphate buffer (300 mM sucrose, 40 mM phosphate, pH 7.0). The columns were packed by spinning at 290×g for 1 minute. Following addition of the sample to the column, the liposome fraction was collected in the void volume by centrifuging at 515×g for 1 minute. Aliquots of the spin column eluant and the pre-column solution were taken and analyzed by liquid scintillation counting to determine the lipid concentration at each time point. The irinotecan concentration in each liposomal fraction was determined using a UV-based assay. […] The samples were cooled to ambient temperature. The absorbance at 370 nm was measured and compared to a standard curve. The concentration of TEA was determined by HPLC.

Compound	form of irinotecan in solution ([1]; pH 7.0 (data not shown))	form of irinotecan in solution ([1]; pH 8.7, confirmed by HPLC)	liposomal encapsulation (result in words) [2]	liposomal loading (result in words) ([3]; TEA buffered internal solution pH 7.0, external phosphate buffer pH 7.0, 50° C. (FIG. 1))	increase of irinotecan/lipid molar ratio ([3]; after 2 min at 50° C.)	increase of irinotecan/lipid molar ratio ([3]; after 60 min at 50° C.)	irinotecan encapsulation efficiency ([3]; copper gluconate/TEA containing liposomes (100 mM copper gluconate/180 mM TEA, pH 7.0))	irinotecan concentration inside the liposomes upon encapsulation ([3]; intra-liposomal) [mM]	irinotecan encapsulation efficiency ([3]; liposomes containing 10 mM sodium gluconate/180 mM TEA, pH 7.0) [%]	irinotecan encapsulation efficiency ([3]; liposomes containing TEA/phosphate buffer (150 mM TEA, 95 mM phosphate, pH 7.0), 0.2:1 drug to lipid (mol:mol))	drug loading (result in words) ([3]; liposomes containing copper gluconate adjusted to pH 7.0 with NaOH (no TEA))	drug encapsulation (result in words) ([3]; liposomes containing sucrose phosphate buffer (no TEA))	reduction of the amount of drug loading ([3]; liposomes with 100 mM copper gluconate, TEA decreased to 90 mM, pH 7.0 (FIG. 11)) [%]	irinotecan encapsulation ([3]; liposomes with 100 mM copper gluconate, TEA increased to 270 mM, pH 7.0 (FIG. 11))	liposomal encapsulation (result in words) ([3]; triethanolamine hydrochloride internal solution, pH 7.0)	liposomal encapsulation (result in words) ([3]; triethanolamine/sodium gluconate/HCl internal solution, pH 7.0)
CCc1c2c(nc3ccc(OC(=O)N4CCC(N5CCCCC5)CC4)cc13)-c1cc3c(c(=O)n1C2)COC(=O)[C@]3(O)CC [irinotecan]	predominantly in its lactone form	primarily in the carboxylate form	successfully encapsulated	successfully loaded	0.08 μmol irinotecan/μmol lipid	0.13 μmol irinotecan/μmol lipid	approximately 70%	> 50	70	approximately 70%	negligible; also recorded: no loading	no drug encapsulation	50	approximately 90%		
COc1cccc2c1C(=O)c1c(O)c3c(c(O)c1C2=O)C[C@@](O)(C(C)=O)C[C@@H]3O[C@H]1C[C@H](N)[C@H](O)[C@H](C)O1 [daunorubicin]															successfully encapsulated	successfully encapsulated
